Target: human GSK3β (Homo sapiens, UniProt P49841)
Test: Screening for GSK3 inhibitory activity using a cell-free assay
Assay type: biochemical
Details: read-out: IC50 with respect to GSK3
Outline: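 Compounds in DMSO were tested against human GSK3β over a three-hour kinase reaction. Radiolabeled phosphate transferred to the peptide was captured on streptavidin plates after EDTA/ATP stop and quantified by scintillation counting. Signal was plotted versus compound concentration.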

Chain of human GSK3β (P49841 whole entry): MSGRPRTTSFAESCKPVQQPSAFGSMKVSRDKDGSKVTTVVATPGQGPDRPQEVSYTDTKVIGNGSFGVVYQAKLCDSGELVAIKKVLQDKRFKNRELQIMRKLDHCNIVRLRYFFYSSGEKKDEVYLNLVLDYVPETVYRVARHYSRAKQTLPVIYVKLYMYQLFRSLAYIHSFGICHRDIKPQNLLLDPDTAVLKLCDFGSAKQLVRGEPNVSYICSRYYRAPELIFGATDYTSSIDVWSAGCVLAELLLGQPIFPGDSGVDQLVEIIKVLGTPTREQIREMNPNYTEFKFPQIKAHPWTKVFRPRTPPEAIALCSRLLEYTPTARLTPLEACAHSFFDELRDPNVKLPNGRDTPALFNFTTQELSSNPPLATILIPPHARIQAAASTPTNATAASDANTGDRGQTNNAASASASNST

N#Cc1ccc(-c2nc(NCCNc3ccc([N+](=O)[O-])cn3)ncc2[N+](=O)[O-])cc1 [4-[5-nitro-2-({2-[(5-nitro(2-pyridyl))amino]ethyl}amino)pyrimidin-4-yl]benzenecarbonitrile]
IC50: ≤ 10 µM

N#Cc1cnc(NCCNc2ccc([N+](=O)[O-])c(N)n2)nc1-c1ccc(Cl)cc1Cl [2-({2-[(6-amino-5-nitro(2-pyridyl))amino]ethyl}amino)-4-(2,4-dichlorophenyl)pyrimidine-5-carbonitrile]
IC50: ≤ 1 µM

N#Cc1ccc(-c2nc(NCCNc3ccc([N+](=O)[O-])cn3)nc(-c3ccc(C#N)cc3)c2C(=O)O)cc1 [4,6-bis(4-cyanophenyl)-2-({2-[(5-nitro(2-pyridyl))amino]ethyl}-amino)pyrimidine-5-carboxylic acid]
IC50: ≤ 1 µM

N#CCNC(=O)c1cnc(NCCNc2ccc([N+](=O)[O-])cn2)nc1-c1ccc(C#N)cc1 [N-(cyanomethyl)[4-(4-cyanophenyl)-2-({2-[(5-nitro(2-pyridyl))amino]ethyl}amino)pyrimidin-5-yl]carboxamide]
IC50: ≤ 1 µM

O=[N+]([O-])c1cnc(NCCNc2ccccn2)nc1-c1ccccc1 [(5-nitro-4-phenylpyrimidin-2-yl)[2-(2-pyridylamino)ethyl]amine]
IC50: ≤ 1 µM

O=C(NCc1cccc(I)c1)c1ccc(-c2ccnc(NCCNc3ccc([N+](=O)[O-])cn3)n2)cc1 [N-[(3-iodophenyl)methyl]{4-[2-({2-[(5-nitro(2-pyridyl))amino]ethyl}amino)pyrimidin-4-yl]phenyl}carboxamide]
IC50: ≤ 10 µM

O=C(O)c1c(-c2ccc([N+](=O)[O-])cc2)nc(NCCNc2ccc([N+](=O)[O-])cn2)nc1-c1ccnc2ccccc12 [2-({2-[(5-nitro(2-pyridyl))amino]ethyl}amino)-6-(4-nitrophenyl)-4-(4-quinolyl)pyrimidine-5-carboxylic acid]
IC50: ≤ 10 µM

CCOC(=O)c1cnc(NCCNc2ccc([N+](=O)[O-])cn2)nc1-c1ccc(CC)cc1 [ethyl 4-(4-ethylphenyl)-2-({2-[(5-nitro(2-pyridyl))amino]ethyl}amino)pyrimidine-5-carboxylate]
IC50: ≤ 1 µM

CN(C)CCOC(=O)c1cnc(NCCNc2ccc([N+](=O)[O-])c(N)n2)nc1-c1ccc(Cl)cc1Cl [2-(dimethylamino)ethyl 2-({2-[(6-amino-5-nitro(2-pyridyl))amino]ethyl}amino)-4-(2,4-dichlorophenyl)pyrimidine-5-carboxylate]
IC50: ≤ 1 µM

NC(=O)c1ccc(-c2ccnc(NCCNc3ccc([N+](=O)[O-])cn3)n2)cc1 [4-[2-({2-[(5-nitro-2-pyridyl)amino]ethyl}amino)-pyrimidin-4-yl]benzamide]
IC50: ≤ 1 µM

O=[N+]([O-])c1ccc(NCCNc2nccc(NCc3ccccc3)n2)nc1 [[2-({2-[(5-nitro(2-pyridyl))amino]ethyl}amino)pyrimidin-4-yl]benzylamine]
IC50: ≤ 10 µM

NC(=O)c1ccc(-c2ccnc(NCCc3cccc(Cl)c3)n2)cc1
IC50: ≤ 10 µM

COc1cccc(OC)c1CNc1nccc(-c2ccc(C(N)=O)cc2)n1 [4-(2-{[(2,6-dimethoxyphenyl)-methyl]amino}pyrimidin-4-yl)benzamide]
IC50: ≤ 10 µM

NC(=O)c1ccc(-c2ccnc(NCc3ccncc3)n2)cc1 [4-{2-[(4-pyridylmethyl)amino]pyrimidin-4-yl}benzamide]
IC50: ≤ 10 µM

Nc1nc(NCCNc2ncc(N3C(=O)CC(N4CCOCC4)C3=O)c(-c3ccc(Cl)cc3Cl)n2)ccc1[N+](=O)[O-] (stereo not drawn) [1-[2-({2-[(6-amino-5-nitro(2-pyridyl))amino]ethyl}amino)-4-(2,4-dichlorophenyl)pyrimidin-5-yl]-3-morpholin-4-ylpyrrolidine-2,5-dione]
IC50: ≤ 1 µM

O=C(NCc1ccc(F)c(F)c1)c1ccc(-c2ccnc(NCCNc3ccc([N+](=O)[O-])cn3)n2)cc1 [N-[(3,4-difluorophenyl)methyl]{4-[2-({2-[(5-nitro(2-pyridyl))amino]ethyl}amino)pyrimidin-4-yl]phenyl}carboxamide]
IC50: ≤ 10 µM

CCOC(=O)c1cnc(NCCNc2ccc([N+](=O)[O-])c(N)n2)nc1-c1ccc(Cl)cc1Cl [ethyl 2-({2-[(6-amino-5-nitro(2-pyridyl))amino]ethyl}amino)-4-(2,4-dichlorophenyl)-pyrimidine-5-carboxylate]
IC50: ≤ 1 µM

Nc1nc(NCCNc2nccc(-c3ccc(C(=O)NCc4cccc(Br)c4)cc3)n2)ccc1[N+](=O)[O-] [{4-[2-({2-[(6-amino-5-nitro(2-pyridyl))amino]ethyl}amino)pyrimidin-4-yl]phenyl}-N-[(3-bromophenyl)methyl]-carboxamide]
IC50: ≤ 10 µM

CCOC(=O)c1cnc(NCCNc2ccc([N+](=O)[O-])cn2)nc1-c1cc(Cl)cc(Cl)c1 [ethyl 4-(3,5-dichlorophenyl)-2-({2-[(5-nitro(2-pyridyl))amino]ethyl}amino)-pyrimidine-5-carboxylate]
IC50: ≤ 10 µM

CCOC(=O)c1c(CC)nc(NCCNc2ccc([N+](=O)[O-])cn2)nc1-c1ccc(C(N)=O)cc1 [ethyl 4-(4-carbamoylphenyl)-6-ethyl-2-({2-[(5-nitro(2-pyridyl))amino]ethyl}amino)pyrimidine-5-carboxylate]
IC50: ≤ 1 µM

CN(C)CCc1noc(-c2cnc(NCCNc3ccc([N+](=O)[O-])cn3)nc2-c2ccc(C#N)cc2)n1 [4-[5-{3-[2-(dimethylamino)ethyl](1,2,4-oxadiazol-5-yl)}-2-({2-[(5-nitro(2-pyridyl))amino]-ethyl}amino)pyrimidin-4-yl]benzenecarbonitrile]
IC50: ≤ 1 µM

Cc1cccc(CNc2ccnc(NCCNc3ccc([N+](=O)[O-])cn3)n2)c1 [[(3-methylphenyl)methyl][2-({2-[(5-nitro-(2-pyridyl))amino]ethyl}amino)pyrimidin-4-yl]amine]
IC50: ≤ 10 µM

O=[N+]([O-])c1ccc(NCCNc2ncc(-c3ncc[nH]3)c(-c3ccc(F)cc3Cl)n2)nc1 [[4-(2-chloro-4-fluorophenyl)-5-imidazol-2-ylpyrimidin-2-yl]{2-[(5-nitro(2-pyridyl))amino]ethyl}amine]
IC50: ≤ 1 µM

CCOC(=O)c1cnc(NCCNc2ccc([N+](=O)[O-])cn2)nc1-c1ccc2c(c1)OCO2
IC50: ≤ 1 µM

CCOC(=O)c1cnc(NCCNc2ccc([N+](=O)[O-])cn2)nc1-c1cncc(Br)c1 [ethyl 4-(5-bromo(3-pyridyl))-2-({2-[(5-nitro(2-pyridyl))amino]ethyl}amino)pyrimidine-5-carboxylate]
IC50: ≤ 10 µM

CCOC(=O)c1cnc(NCCNc2ccc([N+](=O)[O-])c(NCc3ccccc3)n2)nc1-c1ccc(C#N)cc1
IC50: ≤ 10 µM

CN(C)CCOC(=O)c1cnc(NCCNc2ccc([N+](=O)[O-])c(N)n2)nc1-c1ccc(C#N)cc1
IC50: ≤ 1 µM

CN1CCN(c2cnc(NCCNc3ccc([N+](=O)[O-])cn3)nc2-c2ccc(Cl)cc2Cl)CC1 [[4-(2,4-dichlorophenyl)-5-(4-methylpiperazinyl)pyrimidin-2-yl]{2-[(5-nitro(2-pyridyl))amino]ethyl}amine]
IC50: ≤ 1 µM

N#Cc1ccc(NCCNc2ncc(-c3ncc[nH]3)c(-c3ccc(Cl)cc3Cl)n2)nc1 [6-[(2-{[4-(2,4-dichlorophenyl)-5-imidazol-2-ylpyrimidin-2-yl]amino}ethyl)amino]pyridine-3-carbonitrile]
IC50: ≤ 1 µM

O=[N+]([O-])c1ccc(NCCNc2nccc(NCc3cccc(Cl)c3)n2)nc1 [[(3-chlorophenyl)methyl][2-({2-[(5-nitro(2-pyridyl))-amino]ethyl}amino)pyrimidin-4-yl]amine]
IC50: ≤ 10 µM

NS(=O)(=O)c1ccc(CNC(=O)c2ccc(-c3ccnc(NCCNc4ccc([N+](=O)[O-])cn4)n3)cc2)cc1 [{4-[2-({2-[(5-nitro(2-pyridyl))-amino]ethyl}amino)pyrimidin-4-yl]phenyl}-N-[(4-sulfamoylphenyl)methyl]carboxamide]
IC50: ≤ 10 µM

N#Cc1cnc(NCCNc2ccc([N+](=O)[O-])c(N)n2)nc1-c1ccc(Cl)c(Cl)c1 [2-({2-[(6-amino-5-nitro(2-pyridyl))amino]ethyl}amino)-4-(3,4-dichlorophenyl)pyrimidine-5-carbonitrile]
IC50: ≤ 10 µM

CCOC(=O)c1c(CC)nc(NCCNc2ncccc2[N+](=O)[O-])nc1-c1ccc(C(N)=O)cc1 [ethyl 4-(4-carbamoylphenyl)-6-ethyl-2-({2-[(3-nitro(2-pyridyl))amino]ethyl}amino)pyrimidine-5-carboxylate]
IC50: ≤ 10 µM

NC(=O)c1ccc(-c2ccnc(NCCCOc3cccc(-c4ccccc4)c3)n2)cc1 [4-(2-{[3-(3-phenylphenoxy)propyl]-amino}pyrimidin-4-yl)benzamide]
IC50: ≤ 10 µM

NC(=O)c1ccc(-c2ccnc(NCCNc3ccc(C(F)(F)F)cn3)n2)cc1 [4-{2-[(2-{[5-(trifluoromethyl)-2-pyridyl]amino}-ethyl)amino]pyrimidin-4-yl}benzamide]
IC50: ≤ 1 µM

O=[N+]([O-])c1ccc(-c2ccnc(NCCNc3ccccn3)n2)cc1 [[4-(4-nitrophenyl)pyrimidin-2-yl][2-(2-pyridylamino)ethyl]amine]
IC50: ≤ 10 µM

NC(=O)c1ccc(-c2ccnc(NCCCOc3cccc(C(F)(F)F)c3)n2)cc1 [4-[2-({3-[3-(trifluoromethyl)phenoxy]propyl}amino)pyrimidin-4-yl]benzamide]
IC50: ≤ 1 µM

COc1ccc(CNc2nccc(-c3ccc(C(N)=O)cc3)n2)cc1 [4-(2-{[(4-methoxyphenyl)methyl]amino}pyrimidin-4-yl)benzamide]
IC50: ≤ 10 µM

NC(=O)c1ccc(-c2ccnc(NCCCOc3ccc(Cl)cc3Cl)n2)cc1 [4-(2-{[3-(2,4-dichlorophenoxy)propyl]amino}pyrimidin-4-yl)benzamide]
IC50: ≤ 10 µM

NC(=O)c1ccc(-c2ccnc(NCc3cc(Cl)cc(Cl)c3)n2)cc1 [4-(2-{[(3,5-dichlorophenyl)methyl]amino}pyrimidin-4-yl)benzamide]
IC50: ≤ 10 µM

Cc1cccc(CNC(=O)c2ccc(-c3ccnc(NCCNc4ccc([N+](=O)[O-])cn4)n3)cc2)c1 [N-[(3-methylphenyl)methyl){4-[2-({2-[(5-nitro(2-pyridyl))amino]ethyl}amino)pyrimidin-4-yl]phenyl}carboxamide]
IC50: ≤ 10 µM

Oc1ccc(-c2ccnc(NCCCc3nc(Cl)c(Cl)[nH]3)n2)cc1 [4-(2-{[3-(4,5-dichloroimidazolyl)propyl]amino}pyrimidin-4-yl)phenol]
IC50: ≤ 1 µM
